Laboratory results taken from the kinase profiling compilation of Christmann-Franck et al. (2016).

Experiments:
Test in all cases: radiometric filter-binding kinase assay, Kinase HotSpot
Conditions in all cases: compound 0.5 µM; ATP 10 µM
CDC42BPB (human) = CDC42BPB (human) (UniProt Q9Y5S2)
STK24 (human) = STK24 (human) (UniProt Q9Y6E0)
DYRK2 (human) = DYRK2 (human) (UniProt Q92630)
PRKCA (human) = PRKCA (human) (UniProt P17252)
PLK3 (human) = PLK3 (human) (UniProt Q9H4B4)
DCLK2 (human) = DCLK2 (human) (UniProt Q8N568)
DCLK2 (human), sequence (Q8N568 whole entry, looked up): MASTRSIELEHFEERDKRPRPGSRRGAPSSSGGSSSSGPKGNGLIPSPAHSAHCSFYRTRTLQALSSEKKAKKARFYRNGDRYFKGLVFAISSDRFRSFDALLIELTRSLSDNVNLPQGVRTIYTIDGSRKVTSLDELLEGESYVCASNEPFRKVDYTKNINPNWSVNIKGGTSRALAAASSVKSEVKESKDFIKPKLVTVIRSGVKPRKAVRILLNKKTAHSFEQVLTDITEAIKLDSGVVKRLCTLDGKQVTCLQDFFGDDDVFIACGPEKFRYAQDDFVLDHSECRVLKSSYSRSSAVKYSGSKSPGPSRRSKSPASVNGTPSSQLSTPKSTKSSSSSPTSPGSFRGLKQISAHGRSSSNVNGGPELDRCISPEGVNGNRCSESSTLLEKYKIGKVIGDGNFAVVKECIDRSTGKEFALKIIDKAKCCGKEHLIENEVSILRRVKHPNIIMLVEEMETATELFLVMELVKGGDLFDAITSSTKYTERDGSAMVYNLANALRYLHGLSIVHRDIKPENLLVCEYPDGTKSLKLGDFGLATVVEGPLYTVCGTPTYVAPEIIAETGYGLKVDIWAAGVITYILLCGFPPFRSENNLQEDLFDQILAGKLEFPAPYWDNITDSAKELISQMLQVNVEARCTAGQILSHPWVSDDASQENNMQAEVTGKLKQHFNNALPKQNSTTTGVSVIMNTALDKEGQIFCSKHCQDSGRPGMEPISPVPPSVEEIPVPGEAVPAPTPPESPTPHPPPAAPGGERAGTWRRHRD

AURKA (human) = AURKA (human) (UniProt O14965)
MAP2K1 (human) = MAP2K1 (human) (UniProt Q02750)
DAPK1 (human) = DAPK1 (human) (UniProt P53355)
WEE1 (human) = WEE1 (human) (UniProt P30291)
WEE1 (human), sequence (P30291 whole entry, looked up): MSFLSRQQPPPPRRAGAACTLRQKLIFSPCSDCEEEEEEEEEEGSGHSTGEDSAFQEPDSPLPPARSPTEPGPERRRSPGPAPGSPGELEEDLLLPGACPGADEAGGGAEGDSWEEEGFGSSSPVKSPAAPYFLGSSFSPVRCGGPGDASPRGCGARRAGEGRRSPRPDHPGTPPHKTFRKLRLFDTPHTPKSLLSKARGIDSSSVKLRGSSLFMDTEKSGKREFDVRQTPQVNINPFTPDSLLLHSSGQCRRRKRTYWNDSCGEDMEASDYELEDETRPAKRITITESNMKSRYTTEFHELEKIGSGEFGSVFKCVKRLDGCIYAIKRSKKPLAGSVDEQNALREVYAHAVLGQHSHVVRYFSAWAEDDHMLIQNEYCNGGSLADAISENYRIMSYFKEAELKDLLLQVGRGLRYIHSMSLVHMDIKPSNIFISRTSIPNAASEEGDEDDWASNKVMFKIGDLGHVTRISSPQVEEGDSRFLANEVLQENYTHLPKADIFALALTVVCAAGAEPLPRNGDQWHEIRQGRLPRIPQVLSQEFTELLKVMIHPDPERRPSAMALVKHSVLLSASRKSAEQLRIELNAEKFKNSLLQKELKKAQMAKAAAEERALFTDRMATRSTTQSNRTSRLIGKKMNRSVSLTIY

TXK (human) = TXK (human) (UniProt P42681)
PRKCB1 (human) = PRKCB1 (human) (UniProt P05771)
PRKCB1 (human), sequence (P05771 whole entry, looked up): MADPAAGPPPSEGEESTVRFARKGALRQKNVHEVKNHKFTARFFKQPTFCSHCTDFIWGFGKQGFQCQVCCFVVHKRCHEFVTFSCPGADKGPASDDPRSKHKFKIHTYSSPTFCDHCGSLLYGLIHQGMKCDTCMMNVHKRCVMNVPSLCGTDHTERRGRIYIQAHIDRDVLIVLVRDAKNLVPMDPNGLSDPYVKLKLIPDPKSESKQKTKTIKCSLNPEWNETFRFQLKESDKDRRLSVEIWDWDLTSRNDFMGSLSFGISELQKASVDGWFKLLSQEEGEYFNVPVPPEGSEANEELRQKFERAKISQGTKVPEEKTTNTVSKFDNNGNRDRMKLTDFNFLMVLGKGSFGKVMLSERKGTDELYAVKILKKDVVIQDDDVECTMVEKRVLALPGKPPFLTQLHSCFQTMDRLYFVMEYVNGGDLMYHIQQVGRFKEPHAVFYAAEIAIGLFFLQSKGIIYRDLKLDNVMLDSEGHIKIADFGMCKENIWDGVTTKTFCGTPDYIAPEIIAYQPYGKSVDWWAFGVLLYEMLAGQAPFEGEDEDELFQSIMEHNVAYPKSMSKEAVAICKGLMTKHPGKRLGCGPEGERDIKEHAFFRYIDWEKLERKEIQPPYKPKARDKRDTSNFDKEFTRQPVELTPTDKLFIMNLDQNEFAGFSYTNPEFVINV

RPS6KB2 (human) = RPS6KB2 (human) (UniProt Q9UBS0)
HCK (human) = HCK (human) (UniProt P08631)
CSNK1D (human) = CSNK1D (human) (UniProt P48730)
EPHA5 (human) = EPHA5 (human) (UniProt P54756)
WNK2 (human) = WNK2 (human) (UniProt Q9Y3S1)
GSG2 (human) = GSG2 (human) (UniProt Q8TF76)
HIPK2 (human) = HIPK2 (human) (UniProt Q9H2X6)
ERBB2 (human) = ERBB2 (human) (UniProt P04626)
PRKACA (human) = PRKACA (human) (UniProt P17612)
FGR (human) = FGR (human) (UniProt P09769)
CDK9 CCNK (human) = CDK9 CCNK (human) (UniProt O75909+P50750)
MARK3 (human) = MARK3 (human) (UniProt P27448)
PTK2B (human) = PTK2B (human) (UniProt Q14289)
FGFR3 (human) = FGFR3 (human) (UniProt P22607)
ITK (human) = ITK (human) (UniProt Q08881)
FES (human) = FES (human) (UniProt P07332)
BMX (human) = BMX (human) (UniProt P51813)
KDR (human) = KDR (human) (UniProt P35968)
MAP3K9 (human) = MAP3K9 (human) (UniProt P80192)
MST4 (human) = MST4 (human) (UniProt Q9P289)
MST4 (human), sequence (Q9P289 whole entry, looked up): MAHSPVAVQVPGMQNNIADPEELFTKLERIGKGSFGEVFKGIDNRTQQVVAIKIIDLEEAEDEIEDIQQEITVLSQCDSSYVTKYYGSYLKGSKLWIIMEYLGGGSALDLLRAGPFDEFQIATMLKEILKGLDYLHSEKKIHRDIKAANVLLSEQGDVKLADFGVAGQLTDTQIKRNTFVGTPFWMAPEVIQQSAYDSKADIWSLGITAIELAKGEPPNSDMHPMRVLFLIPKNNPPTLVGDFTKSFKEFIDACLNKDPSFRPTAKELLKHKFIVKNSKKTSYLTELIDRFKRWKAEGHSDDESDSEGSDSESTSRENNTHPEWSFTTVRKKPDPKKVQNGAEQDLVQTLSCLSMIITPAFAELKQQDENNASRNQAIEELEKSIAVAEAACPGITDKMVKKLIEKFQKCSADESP

BTK (human) = BTK (human) (UniProt Q06187)
BTK (human), sequence (Q06187 whole entry, looked up): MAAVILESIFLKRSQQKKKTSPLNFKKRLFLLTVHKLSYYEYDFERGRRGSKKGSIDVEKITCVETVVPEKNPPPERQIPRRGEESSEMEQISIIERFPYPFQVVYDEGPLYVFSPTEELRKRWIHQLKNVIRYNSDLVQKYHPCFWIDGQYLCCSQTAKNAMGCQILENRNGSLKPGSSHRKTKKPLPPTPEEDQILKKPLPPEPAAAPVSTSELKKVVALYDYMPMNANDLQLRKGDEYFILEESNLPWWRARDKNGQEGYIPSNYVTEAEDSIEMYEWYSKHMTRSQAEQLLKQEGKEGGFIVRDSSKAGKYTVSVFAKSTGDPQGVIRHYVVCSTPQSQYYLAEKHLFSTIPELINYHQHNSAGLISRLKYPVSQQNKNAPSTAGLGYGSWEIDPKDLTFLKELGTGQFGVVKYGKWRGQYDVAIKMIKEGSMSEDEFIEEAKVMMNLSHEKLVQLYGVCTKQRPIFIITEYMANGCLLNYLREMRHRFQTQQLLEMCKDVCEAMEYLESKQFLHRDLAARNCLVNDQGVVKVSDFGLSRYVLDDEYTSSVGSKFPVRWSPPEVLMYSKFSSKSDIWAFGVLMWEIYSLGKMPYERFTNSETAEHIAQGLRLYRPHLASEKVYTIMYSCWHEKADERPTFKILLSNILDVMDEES

SRPK3 (human) = SRPK3 (human) (UniProt Q9UPE1)
SRC (human) = SRC (human) (UniProt P12931)
DSTYK (human) = DSTYK (human) (UniProt Q6XUX3)
PLK1 (human) = PLK1 (human) (UniProt P53350)
YES1 (human) = YES1 (human) (UniProt P07947)
CLK4 (human) = CLK4 (human) (UniProt Q9HAZ1)
STK4 (human) = STK4 (human) (UniProt Q13043)
STK4 (human), sequence (Q13043 whole entry, looked up): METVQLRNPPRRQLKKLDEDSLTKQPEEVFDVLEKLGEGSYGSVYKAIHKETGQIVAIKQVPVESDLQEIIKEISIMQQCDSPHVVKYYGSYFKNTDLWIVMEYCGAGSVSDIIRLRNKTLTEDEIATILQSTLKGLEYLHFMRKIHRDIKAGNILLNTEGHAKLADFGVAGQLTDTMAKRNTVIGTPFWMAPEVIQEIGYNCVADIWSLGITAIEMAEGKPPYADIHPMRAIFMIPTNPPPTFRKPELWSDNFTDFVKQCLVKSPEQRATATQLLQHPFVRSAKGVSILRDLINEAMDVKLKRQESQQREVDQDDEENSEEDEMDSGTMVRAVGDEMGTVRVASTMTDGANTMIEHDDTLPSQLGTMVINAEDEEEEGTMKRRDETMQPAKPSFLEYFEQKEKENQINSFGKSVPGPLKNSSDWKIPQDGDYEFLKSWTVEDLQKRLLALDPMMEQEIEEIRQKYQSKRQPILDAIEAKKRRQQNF

RPS6KA6 KD1 KD2 (human) = RPS6KA6 KD1 KD2 (human) (UniProt Q9UK32)
RPS6KA6 KD1 KD2 (human), sequence (Q9UK32 whole entry, looked up): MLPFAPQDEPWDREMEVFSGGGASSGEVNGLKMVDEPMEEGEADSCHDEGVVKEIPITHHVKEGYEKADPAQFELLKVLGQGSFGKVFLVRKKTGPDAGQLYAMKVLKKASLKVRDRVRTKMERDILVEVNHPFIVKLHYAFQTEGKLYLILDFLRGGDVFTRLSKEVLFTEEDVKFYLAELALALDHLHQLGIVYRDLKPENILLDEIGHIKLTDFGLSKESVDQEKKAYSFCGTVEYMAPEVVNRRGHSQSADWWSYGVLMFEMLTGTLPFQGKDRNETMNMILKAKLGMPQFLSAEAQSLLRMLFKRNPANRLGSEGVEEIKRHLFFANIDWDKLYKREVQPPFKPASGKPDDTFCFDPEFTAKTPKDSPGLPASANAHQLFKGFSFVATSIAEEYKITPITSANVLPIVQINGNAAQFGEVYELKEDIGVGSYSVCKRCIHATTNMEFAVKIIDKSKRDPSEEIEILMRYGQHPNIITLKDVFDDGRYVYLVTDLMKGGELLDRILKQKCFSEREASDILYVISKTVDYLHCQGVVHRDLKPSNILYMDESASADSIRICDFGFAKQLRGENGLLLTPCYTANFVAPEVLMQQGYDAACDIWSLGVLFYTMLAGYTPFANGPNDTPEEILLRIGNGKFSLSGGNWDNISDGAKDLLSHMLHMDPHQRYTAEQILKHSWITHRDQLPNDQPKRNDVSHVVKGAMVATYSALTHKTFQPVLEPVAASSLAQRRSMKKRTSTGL

NEK6 (human) = NEK6 (human) (UniProt Q9HC98)

DYRK2 (human), sequence (Q92630 whole entry, looked up): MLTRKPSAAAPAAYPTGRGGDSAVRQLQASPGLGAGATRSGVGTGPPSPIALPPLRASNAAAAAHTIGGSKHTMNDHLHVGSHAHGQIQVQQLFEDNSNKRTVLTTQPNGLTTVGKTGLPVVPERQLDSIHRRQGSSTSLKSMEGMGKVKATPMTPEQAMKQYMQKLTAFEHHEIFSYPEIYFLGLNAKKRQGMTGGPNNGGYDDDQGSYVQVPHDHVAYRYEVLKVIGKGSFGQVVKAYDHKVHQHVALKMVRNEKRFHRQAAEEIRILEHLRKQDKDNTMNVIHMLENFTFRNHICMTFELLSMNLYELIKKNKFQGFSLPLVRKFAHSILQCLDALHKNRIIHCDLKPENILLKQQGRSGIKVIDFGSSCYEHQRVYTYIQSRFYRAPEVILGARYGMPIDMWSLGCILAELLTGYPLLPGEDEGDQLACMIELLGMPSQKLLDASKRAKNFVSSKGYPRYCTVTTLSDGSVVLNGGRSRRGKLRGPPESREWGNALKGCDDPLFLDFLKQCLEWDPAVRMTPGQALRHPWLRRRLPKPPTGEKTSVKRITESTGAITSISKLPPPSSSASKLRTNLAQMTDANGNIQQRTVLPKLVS

Work on `O=C(CCCc1ccc(-c2ccccc2F)cc1)Nc1ccc(O)cc1` yielded a residual activity (CDC42BPB (human)) of 109%, a residual activity (STK24 (human)) of 88.9% and a residual activity (DYRK2 (human)) of 91.8%. It also gave a residual activity (PRKCA (human)) of 100%, a residual activity (PLK3 (human)) of 95% and a residual activity (DCLK2 (human)) of 96.1%. It also gave a residual activity (AURKA (human)) of 104%, a residual activity (MAP2K1 (human)) of 104% and a residual activity (DAPK1 (human)) of 110%. The residual activity (WEE1 (human)) was 83.7%, the residual activity (TXK (human)) was 97.7% and the residual activity (PRKCB1 (human)) was 93.4%. For the same molecule, the residual activity (RPS6KB2 (human)) was 104%, the residual activity (HCK (human)) was 93.5% and the residual activity (CSNK1D (human)) was 102%. The residual activity (EPHA5 (human)) was 99%, the residual activity (WNK2 (human)) was 106% and the residual activity (GSG2 (human)) was 94.7%. It also gave a residual activity (HIPK2 (human)) of 112%, a residual activity (ERBB2 (human)) of 101% and a residual activity (PRKACA (human)) of 99.5%. It also gave a residual activity (FGR (human)) of 96%, a residual activity (CDK9 CCNK (human)) of 96.7% and a residual activity (MARK3 (human)) of 101%. The residual activity (PTK2B (human)) was 98.8%, the residual activity (FGFR3 (human)) was 103% and the residual activity (ITK (human)) was 85%. It also gave a residual activity (FES (human)) of 100%, a residual activity (BMX (human)) of 99.6% and a residual activity (KDR (human)) of 101%. The residual activity (MAP3K9 (human)) was 100%, the residual activity (MST4 (human)) was 91.5% and the residual activity (BTK (human)) was 98.2%. For the same molecule, the residual activity (SRPK3 (human)) was 93.7%, the residual activity (SRC (human)) was 93.7% and the residual activity (DSTYK (human)) was 103%. The residual activity (PLK1 (human)) was 95.5%, the residual activity (YES1 (human)) was 110% and the residual activity (CLK4 (human)) was 103%. It also gave a residual activity (STK4 (human)) of 95%, a residual activity (RPS6KA6 KD1 KD2 (human)) of 105% and a residual activity (NEK6 (human)) of 99.4%.

`Cn1cnc2cc3c(Nc4cccc(Br)c4)ncnc3cc21` was tested, and the residual activity (CDC42BPB (human)) was 104%, the residual activity (STK24 (human)) was 83.4% and the residual activity (DYRK2 (human)) was 95.5%. It also gave a residual activity (PRKCA (human)) of 79%, a residual activity (PLK3 (human)) of 99.8% and a residual activity (DCLK2 (human)) of 92.9%. For the same molecule, the residual activity (AURKA (human)) was 87.8%, the residual activity (MAP2K1 (human)) was 113% and the residual activity (DAPK1 (human)) was 87.2%. The residual activity (WEE1 (human)) was 106%, the residual activity (TXK (human)) was 86.7% and the residual activity (PRKCB1 (human)) was 100%. For the same molecule, the residual activity (RPS6KB2 (human)) was 96.8%, the residual activity (HCK (human)) was 70.4% and the residual activity (CSNK1D (human)) was 93.9%. The residual activity (EPHA5 (human)) was 71.5%, the residual activity (WNK2 (human)) was 89.7% and the residual activity (GSG2 (human)) was 89.4%. It also gave a residual activity (HIPK2 (human)) of 106%, a residual activity (ERBB2 (human)) of 47.4% and a residual activity (PRKACA (human)) of 105%. It also gave a residual activity (FGR (human)) of 55.8%, a residual activity (CDK9 CCNK (human)) of 100% and a residual activity (MARK3 (human)) of 104%. For the same molecule, the residual activity (PTK2B (human)) was 92.7%, the residual activity (FGFR3 (human)) was 98.6% and the residual activity (ITK (human)) was 102%. For the same molecule, the residual activity (FES (human)) was 101%, the residual activity (BMX (human)) was 96.6% and the residual activity (KDR (human)) was 71.7%. For the same molecule, the residual activity (MAP3K9 (human)) was 79.8%, the residual activity (MST4 (human)) was 94.3% and the residual activity (BTK (human)) was 86.8%. For the same molecule, the residual activity (SRPK3 (human)) was 94.9%, the residual activity (SRC (human)) was 81.2% and the residual activity (DSTYK (human)) was 97.5%. The residual activity (PLK1 (human)) was 97.6%, the residual activity (YES1 (human)) was 45.7% and the residual activity (CLK4 (human)) was 88.5%. The residual activity (STK4 (human)) was 94.2%, the residual activity (RPS6KA6 KD1 KD2 (human)) was 92.5% and the residual activity (NEK6 (human)) was 98.1%.

`CCn1cnc2c(Nc3cccc(Cl)c3)nc(N[C@@H]3CCCC[C@@H]3N)nc21` was tested, and the residual activity (CDC42BPB (human)) was 97.7%, the residual activity (STK24 (human)) was 79% and the residual activity (DYRK2 (human)) was 107%. It also gave a residual activity (PRKCA (human)) of 68.2%, a residual activity (PLK3 (human)) of 90.1% and a residual activity (DCLK2 (human)) of 93.1%. For the same molecule, the residual activity (AURKA (human)) was 105%, the residual activity (MAP2K1 (human)) was 92.2% and the residual activity (DAPK1 (human)) was 79.1%. It also gave a residual activity (WEE1 (human)) of 110%, a residual activity (TXK (human)) of 69.1% and a residual activity (PRKCB1 (human)) of 106%. For the same molecule, the residual activity (RPS6KB2 (human)) was 103%, the residual activity (HCK (human)) was 69.6% and the residual activity (CSNK1D (human)) was 97.8%. For the same molecule, the residual activity (EPHA5 (human)) was 73.9%, the residual activity (WNK2 (human)) was 94.1% and the residual activity (GSG2 (human)) was 90.4%. The residual activity (HIPK2 (human)) was 94%, the residual activity (ERBB2 (human)) was 95.6% and the residual activity (PRKACA (human)) was 102%. The residual activity (FGR (human)) was 45.8%, the residual activity (CDK9 CCNK (human)) was 46.9% and the residual activity (MARK3 (human)) was 98.7%. The residual activity (PTK2B (human)) was 85.7%, the residual activity (FGFR3 (human)) was 90.4% and the residual activity (ITK (human)) was 105%. For the same molecule, the residual activity (FES (human)) was 83.5%, the residual activity (BMX (human)) was 90.7% and the residual activity (KDR (human)) was 96.5%. It also gave a residual activity (MAP3K9 (human)) of 54.9%, a residual activity (MST4 (human)) of 104% and a residual activity (BTK (human)) of 82.5%. It also gave a residual activity (SRPK3 (human)) of 94.9%, a residual activity (SRC (human)) of 54.7% and a residual activity (DSTYK (human)) of 97.8%. The residual activity (PLK1 (human)) was 86%, the residual activity (YES1 (human)) was 35.4% and the residual activity (CLK4 (human)) was 49.9%. The residual activity (STK4 (human)) was 91.3%, the residual activity (RPS6KA6 KD1 KD2 (human)) was 75.7% and the residual activity (NEK6 (human)) was 102%.
